The subject of data set [1] is phosphorylated ERK in MDA-MB-231 breast cancer cells. Description: Western blotting for phosphorylated ERK in MDA-MB-231 cells (EC50 data). In kind it is cell-based. Particulars: Homo sapiens, 0.5 h, 30 min compound, EGF stimulation, read-out: MDA pERK ELISA EC50. The protocol:
Effects of compounds in the cell were determined by Western blotting for phosphorylated ERK. MDA-MB-231 breast cancer cells were plated in a 48 well plate at 20,000 cells per well and grown in a 37° humidified CO2 incubator. The following day, the growth media (DMEM+10% fetal bovine serum) was removed and replaced with starve media (DMEM+0.1% fetal bovine serum). Cells were incubated in the starve media for sixteen hours and then treated with a range of compound concentrations for thirty minutes. After incubation with compound, cells were stimulated with 100 ng/mlEGF for five minutes. The cells were then lysed and analyzed by Western blot using a monoclonal antibody raised to phosphorylated ERK. The signal was amplified using a secondary antibody conjugated to a near-IR dye and detected on a Licor Odyssey scanner.

Data set [2] in a line: Single-dose capsule administration in human cancer patients, concentration-time profiles. To be noted: in vivo, oral, capsules of example 95A. The protocol:
Administration of the capsules described in example 95A in Human Cancer Patients.Human cancer patients were administered a single dose of the 1 mg or 10 mg capsule composition described above in example 95A. For a 2 mg dose, patients were given 2×1 mg capsules; for a 4 mg dose, patients were given 4×1 mg capsules; for a 6 mg dose, patients were given 6×1 mg capsules; for a 10 mg dose, patients were given 1×10 mg capsule; for a 20 mg dose, patients were given 2×10 mg capsules.
The concentration-time profiles were monitored and are shown in FIG. 4 and in the table below: […]

Data set [3] relates to MEK (pERK levels) in Colo205 tumors. Briefly: MEK inhibition (pERK Western blot) in Colo205 xenograft tumors vs plasma concentration. Format: in vivo, Female nu/nu mice. To be noted: Colo205 xenografts, pharmacodynamic/pharmacokinetic study. The protocol: (§1) Human tumors were implanted in nu/nu mice. Compound no. 1021 was administered orally for 14 days once tumors were approximately 100 mm^3 in size. Tumor growth inhibition (TGI) was determined after 14 days of treatment as the reduction in the size of tumors in treated groups versus vehicle controls. The time to endpoint (TTE) was calculated as the time for the tumor to reach the specified endpoint volume or the last day of the study, whichever came first. Treatment outcome was determined from percent tumor growth delay (% TGD), defined as the percent increase in median TTE of treated versus vehicle-treated control mice. Animals were also monitored for regression responses. Levels of pERK in tumors and brain were determined by Western blots and correlated with plasma levels of Compound no. […] A number of tumor models were evaluated with different doses and dosing regimens. […] The effect of different dosing regimens was evaluated in A375 xenografts. […]
(§2) Female nu/nu mice implanted with Colo205 tumor cells were given a single dose of vehicle or Compound no. […] Compound levels were determined in plasma samples and pERK levels were determined in tumor and brain samples collected at 2, 6, 12, and 24 hr post-dose. The pERK levels from Western blots were quantified using the LI-COR Odyssey, normalized to total ERK levels and compared to vehicle-treated levels to determine % MEK inhibition. […]
For orientation: In western blotting, separated proteins are transferred to a membrane and probed.

Data set [4] has as its system A431 epidermoid tumors. Briefly: A431 epidermoid tumor xenograft, tumor growth inhibition / delay. Format: in vivo, nu/nu mice. The protocol: (§3) Human tumors were implanted in nu/nu mice. Compound no. 1021 was administered orally for 14 days once tumors were approximately 100 mm^3 in size. Tumor growth inhibition (TGI) was determined after 14 days of treatment as the reduction in the size of tumors in treated groups versus vehicle controls. The time to endpoint (TTE) was calculated as the time for the tumor to reach the specified endpoint volume or the last day of the study, whichever came first. Treatment outcome was determined from percent tumor growth delay (% TGD), defined as the percent increase in median TTE of treated versus vehicle-treated control mice. Animals were also monitored for regression responses. Levels of pERK in tumors and brain were determined by Western blots and correlated with plasma levels of Compound no. 1021 for the pharmacodynamic/pharmacokinetic study. A number of tumor models were evaluated with different doses and dosing regimens. […] The effect of different dosing regimens was evaluated in A375 xenografts. Although 100 mg/kg Compound no. […] 1021. […]
(§4) Tumor Growth Inhibition for the groups treated with 25 mg/kg Compound no. 1021 were calculated for the indicated tumor xenografts. Tumor Growth Inhibition was measured at the end of once daily dosing for 14 days and calculated according to: […]

The nature of data set [5]: Plasma concentrations in A375 xenograft mice, QD vs BID. In kind it is in vivo, Female nu/nu mice. Particulars: oral.
Data set [6] relates to HT29 colon cancer tumors. Briefly: HT29 colon tumor xenograft, tumor growth inhibition. Format: in vivo, nu/nu mice. To be noted: oral 25 mg/kg QD. The protocol:
as §3, §4

Data set [7] has as its system Colo205 colon cancer tumors. Description: Colo205 colon tumor xenograft, tumor growth inhibition / delay. In kind it is in vivo, nu/nu mice. The protocol: as §3, §4
Data set [8] concerns brain MEK activity (pERK levels). Briefly: Inhibition of brain MEK activity (pERK Western blot) vs plasma concentration. In kind it is in vivo, Female nu/nu mice. To be noted: Colo205 xenograft mice, pharmacodynamic/pharmacokinetic study. The protocol: as §1, §2
The test system of data set [9] is A375 melanoma tumors. Description: A375 melanoma xenograft, tumor growth inhibition / delay. Format: in vivo, nu/nu mice. The protocol:
as §1, §4
Female nu/nu mice were implanted with A375 tumor cells, which were allowed to grow to 100-200 mm^3. […] Tumor Growth Inhibition was measured at the end of once daily dosing for 14 days and calculated according to: […]

[10] abbreviates: column 2, no head, 2nd regimen of b975: 25 mg/kg BID.

Where two headings read alike, the source gives them in different places. A value given as a limit tells only on which side of the number the result lay.

One may read the EC50 as the concentration at which the effect is half-maximal. The Cmax is the maximum level reached in the sampled fluid or tissue.

For the compound `O=S(=O)(Nc1ccc(F)c(F)c1Nc1ccc(-c2ccncc2)cc1F)C1CC1` [compound 0497688], the half-maximal effective concentration (EC50) in data set [1] was over 200 nM.
On the same count and under the same terms, then `O=S(=O)(Nc1ccc(F)c(F)c1Nc1ccc(-c2cn[nH]c2)cc1F)C1CC1` [compound 0497618], with over 200 nM; and `O=S(=O)(Nc1ccc(F)c(F)c1Nc1ccc(I)cc1F)c1ccc(-c2nsc(Cl)n2)s1` [compound 0530701], with 100 to 200 nM.
In the case of `CNCCS(=O)(=O)Nc1ccc(F)c(F)c1Nc1ccc(I)cc1F` [compound 0621002], in data set [1], the EC50 was in the range of 15 to 100 nM.
Same read-out and setting: then `Cn1cc(-c2ccc(Nc3c(NS(=O)(=O)C4CC4)ccc(F)c3F)c(F)c2)cn1` [compound 0497620], with over 200 nM; and `O=S(=O)(Nc1ccc(F)c(F)c1Nc1ccc(-c2cc[nH]n2)cc1F)C1CC1` [compound 0497654], with 100 to 200 nM; and `CC(=O)c1cccc(-c2ccc(Nc3c(NS(=O)(=O)C4CC4)ccc(F)c3F)c(F)c2)c1` [compound 0499266], with over 200 nM.
With `CS(=O)(=O)Nc1ccc(-c2ccc(Nc3c(NS(=O)(=O)C4CC4)ccc(F)c3F)c(F)c2)cc1` [compound 0499271], the EC50 in data set [1] is over 200 nM.
The same measure, in the same setting: then `COC(=O)c1sccc1S(=O)(=O)Nc1ccc(F)c(F)c1Nc1ccc(I)cc1F` [compound 0620926], with over 200 nM; and `O=S(=O)(Nc1ccc(F)c(F)c1Nc1ccc(-c2cccnc2)cc1F)C1CC1` [compound 0497689], with over 200 nM.
Turning to `COc1cc(F)c(F)c(Nc2ccc(I)cc2F)c1NS(=O)(=O)C1(C[C@H](O)CO)CC1` [Compound no. 1021], the concentration at 12 h in data set [2] (2 mg, Dose 2 mg, Day 1, read-out: C12 hr) is 0.0378 ng/mL; in data set [2] (2 mg, Dose 2 mg, Day 35, read-out: C12 hr), 0.0756 ng/mL; in data set [2] (4 mg, Dose 4 mg, Day 1, read-out: C12 hr) it was 0.134 ng/mL; in data set [2] (4 mg, Dose 4 mg, Day 35, read-out: C12 hr), 0.31 ng/mL; in data set [2] (10 mg, Dose 10 mg, Day 35, read-out: C12 hr), 1.01 ng/mL; in [2] (20 mg, Dose 20 mg, Day 35, read-out: C12 hr) it was 2.19 ng/mL. The “pERK formation in tumors” value in data set [3] is given as “inhibition of pERK formation”. Further, the “% TGD, significance” value in [4] (25 or 50 mg/kg QD), in data set [7] (25 or 50 mg/kg QD) and in data set [9] (25 or 50 mg/kg QD) was “statistically significant” in each case. Further, the “TGI, significance” value in [4] (oral 25 mg/kg QD), in data set [6], in [7] (oral 25 mg/kg QD) and in data set [9] (oral 25 mg/kg QD) was “Statistically significant” in each case. Moreover, the “Cmin Free Fraction” value in data set [5] (column 1, no head, 1st regimen of b975: 50 mg/kg QD) was found to be 0.117 ng/mL; in data set [5] (setting [10]), 2.48 ng/mL; in [5] (column 3, no head, 3rd regimen of b975: printed 50 mg/kg QD), 0.059 ng/mL; in data set [5] (column 4, no head, 4th regimen of b975: 12.5 mg/kg BID), 0.986 ng/mL. In addition, the Cmax in data set [5] (setting [10]) was found to be 10200 ng/mL. Moreover, in data set [8], the “pERK inhibition in brain” value was “minimal inhibition”.
Take `Cn1cc(S(=O)(=O)Nc2ccc(F)c(F)c2Nc2ccc(I)cc2F)c(C(F)(F)F)n1` [compound 0621026]: in data set [1], the EC50 fell in the range of 100 to 200 nM.
Still for that read-out and setting: then `O=S(=O)(Nc1ccc(F)c(F)c1Nc1ccc(I)cc1F)C1CCNCC1` [compound 0561599], with 15 to 100 nM; and `CCN(C)CCS(=O)(=O)Nc1ccc(F)c(F)c1Nc1ccc(I)cc1F` [compound 0621029], with 100 to 200 nM.
For the compound `O=S(=O)(Nc1ccc(F)c(F)c1Nc1ccc(-c2ccccc2)cc1F)C1CC1` [compound 0497692], in data set [1], the EC50 is over 200 nM.
On the same count and under the same terms, then `CN(C)CCNCCS(=O)(=O)Nc1ccc(F)c(F)c1Nc1ccc(I)cc1F` [compound 0621016], with 15 to 100 nM; and `COC(=O)c1ccc(S(=O)(=O)Nc2ccc(F)c(F)c2Nc2ccc(I)cc2F)n1C` [compound 0561608], with 15 to 100 nM.

The values above are taken from US8808742B2, “Compositions and methods for preparing and using same” (Ardea Biosciences, Inc., priority 2008, dated 2014).
